Data published in US20240382552A1, “COMPOSITION FOR PREVENTING, AMELIORATING OR TREATING SLEEP DISORDER OR INSOMNIA, CONTAINING EXTRACT OF ROASTED CITRUS BYPRODUCT AS ACTIVE INGREDIENT” (priority 2021, published 2024).
Where a name gives a salt, the structure may show the parent alone. Marks after values point to notes of the source that are not given here.

How the values were obtained:
C57BL/6N mice = test: Sleep architecture analysis (EEG/EMG); assay type: in vivo; details: Example 1 100 mg/kg, Example 2 300 mg/kg, zolpidem 10 mg/kg p.o.
Experimental: After the accommodation period of 1 week, electrodes were inserted into the
C57BL/6N mice for measurement of electroencephalograms (EEGs) and electromyograms (EMGs). After anesthetizing the mouse with pentobarbital (50 mg/kg, i.p.), the head was fixed in a stereotaxic instrument. After incising the subcutaneous connective tissue, a mouse EEG/EMG Headmount (Pinnacle Technology Inc, Oregon, USA) was inserted for EEG and EMG recording. After fixing with dental cement followed by suturing and disinfection, antibiotics were injected for 3 days to prevent inflammation. The mice were allowed to recover for 7 days. For accommodation to the measurement environment, the recording apparatus was connected from 4 days prior to the measurement. After orally administering the sample and waiting for 5 minutes for sedation, EEG and EMG were recorded for 24 hours from 17:00 using PAL-8200 (Pinnacle Technology Inc., Oregon, USA). Sampling rate was set at 200 Hz (epoch time: 10 s). Filtering range was 0.1-25 Hz for EEG and 10-100 Hz for EMG. Sleep architecture was analyzed according to the fast Fourier transform (FFT) algorithm using SleepSign (Ver. 3.0, Kissei Comtec, Nagono, Japan).
Sleep architecture analysis was conducted to evaluate the effect of the roasted citrus byproduct extracts according to an exemplary embodiment of the present disclosure on the quantity and quality of sleep. […]

[1] = test system: mice to which a sleeping dose of pentobarbital (45 mg/kg, i.p.) was administered; test: Pentobarbital-induced sleep test; details: pentobarbital 45 mg/kg i.p. 45 min after oral sample; DH 30 mg/kg, lime extracts 100 mg/kg, lemon extracts 300 mg/kg; n=10

SMILES | delta activity during non-REM sleep (C57BL/6N mice) | time after oral administration for which NREM sleep was significantly increased (C57BL/6N mice; 24 h EEG recording) [h] | Sleep duration (min) [1] | Sleep latency (min) [1]
Cc1ccc(-c2nc3ccc(C)cn3c2CC(=O)N(C)C)cc1 [zolpidem] | significantly decreased delta activity | 6 |  | 
CN(C)CCC=C1c2ccccc2COc2ccccc21 [Doxepin hydrochloride (DH), Doxepin hydrochloride] |  |  | 121.2*** min | 2.9*** min
